Assay results reported in paper PMC11575720 (RSC Advances, 2024).

Assays:
L. major DHFR = L. major DHFR (Leishmania major, UniProt P07382); assay: L. major DHFR; format: biochemical
L. major PTR1 = biological target: T1, L. major PTR1 (Leishmania major, UniProt Q01782); assay: L. major PTR1 enzyme inhibition assay; format: biochemical
T1 sequence (Q01782 1-288): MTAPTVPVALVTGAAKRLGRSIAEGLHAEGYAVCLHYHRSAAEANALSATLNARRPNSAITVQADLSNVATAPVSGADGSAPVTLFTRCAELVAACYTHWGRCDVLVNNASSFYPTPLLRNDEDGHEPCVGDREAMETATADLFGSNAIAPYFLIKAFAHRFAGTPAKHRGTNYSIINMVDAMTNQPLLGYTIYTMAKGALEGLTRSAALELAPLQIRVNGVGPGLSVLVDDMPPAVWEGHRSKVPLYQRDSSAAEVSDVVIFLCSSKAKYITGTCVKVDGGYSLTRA

Sequence of L. major DHFR (P07382 whole entry): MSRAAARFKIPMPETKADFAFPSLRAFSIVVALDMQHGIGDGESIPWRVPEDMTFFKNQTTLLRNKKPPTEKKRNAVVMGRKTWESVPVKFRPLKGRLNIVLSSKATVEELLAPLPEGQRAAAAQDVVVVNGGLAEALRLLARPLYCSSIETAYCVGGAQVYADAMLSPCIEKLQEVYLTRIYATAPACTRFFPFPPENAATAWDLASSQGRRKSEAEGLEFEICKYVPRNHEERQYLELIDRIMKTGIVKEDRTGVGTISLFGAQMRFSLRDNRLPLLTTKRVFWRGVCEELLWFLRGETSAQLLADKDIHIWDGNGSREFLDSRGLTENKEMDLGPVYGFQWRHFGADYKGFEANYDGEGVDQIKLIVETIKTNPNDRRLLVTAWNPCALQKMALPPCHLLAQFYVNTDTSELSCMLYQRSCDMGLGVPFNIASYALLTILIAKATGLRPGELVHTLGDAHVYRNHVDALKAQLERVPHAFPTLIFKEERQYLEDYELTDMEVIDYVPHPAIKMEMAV

Row | SMILES | IC50 (L. major DHFR) [nM] | IC50 (L. major PTR1) [µM]
1 | O=C(NC(=S)Nc1cccc(O)c1)c1cccs1 [Compound 4g, N-((3-Hydroxyphenyl)carbamothioyl)thiophene-2-carboxamide] | 8090 ± 10 | 0.58 ± 0.05
2 | Cc1nc(NC(=S)NCc2cccs2)nc(-c2ccccc2)c1C(=O)N1CCC(C(=O)O)CC1 [Compound 20b, 1-(4-Methyl-6-phenyl-2-(3-(thiophen-2-ylmethyl)thioureido)pyrimidine-5-carbonyl)piperidine-4-carboxylic acid] | 1140 ± 10 | 19.89 ± 0.01
3 | Cc1nc(NC(=S)NCc2ccco2)nc(-c2ccccc2)c1C(=O)N1CCC(C(=O)O)CC1 [Compound 20a, 1-(2-(3-(Furan-2-ylmethyl)thioureido)-4-methyl-6-phenylpyrimidine-5-carbonyl)piperidine-4-carboxylic acid] | 2630 ± 10 | 15.86 ± 0.01
